Results from patent publication US9580423B2, “Bicyclic heterocycles as FGFR4 inhibitors” (Incyte Corporation, priority 2015, dated 2017).
Like-named read-outs stand apart in the source and are kept apart here.

Key:
FGFR3 = FGFR3 (Homo sapiens (Human), UniProt P22607); experiment: FGFR Enzymatic Assay (FRET peptide phosphorylation), FGFR3; details: read-out: FGFR3 IC50
Excerpt: (§1) The enzymes were purchased from Millipore or Invitrogen.
(§2) GraphPad prism3 was used to analyze the data. The IC50 values were derived by fitting the data to the equation for a sigmoidal dose-response with a variable slope. Y=Bottom+(Top-Bottom)/(1+10^((LogIC50−X)*HillSlope)) where X is the logarithm of concentration and Y is the response.

FGFR2 = FGFR2 (Homo sapiens (Human), UniProt P21802); experiment: FGFR Enzymatic Assay (FRET peptide phosphorylation), FGFR2; details: read-out: FGFR2 IC50
Sequence of FGFR2 (P21802 22-821): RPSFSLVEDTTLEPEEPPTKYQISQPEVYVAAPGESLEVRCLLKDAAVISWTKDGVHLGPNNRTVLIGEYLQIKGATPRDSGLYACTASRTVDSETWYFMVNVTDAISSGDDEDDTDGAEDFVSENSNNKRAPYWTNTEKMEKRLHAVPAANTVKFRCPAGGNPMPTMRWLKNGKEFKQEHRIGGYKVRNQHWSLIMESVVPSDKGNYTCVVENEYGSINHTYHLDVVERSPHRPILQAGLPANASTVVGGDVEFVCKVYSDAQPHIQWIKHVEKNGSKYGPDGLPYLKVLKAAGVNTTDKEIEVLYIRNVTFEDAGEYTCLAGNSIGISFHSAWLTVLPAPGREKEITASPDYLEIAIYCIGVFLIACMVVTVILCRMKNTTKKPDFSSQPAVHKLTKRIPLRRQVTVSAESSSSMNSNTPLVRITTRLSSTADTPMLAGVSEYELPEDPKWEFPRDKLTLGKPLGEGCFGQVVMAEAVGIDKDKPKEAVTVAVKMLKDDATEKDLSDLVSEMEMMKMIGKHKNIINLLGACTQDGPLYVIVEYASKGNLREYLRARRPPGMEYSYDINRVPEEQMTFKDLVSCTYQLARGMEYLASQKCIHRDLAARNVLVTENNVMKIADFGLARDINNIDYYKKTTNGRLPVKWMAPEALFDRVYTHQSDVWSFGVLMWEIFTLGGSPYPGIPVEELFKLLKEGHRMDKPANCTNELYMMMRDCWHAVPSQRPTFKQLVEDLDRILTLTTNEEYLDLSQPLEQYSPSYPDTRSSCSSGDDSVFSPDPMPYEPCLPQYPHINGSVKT
Excerpt: as §1, §2

FGFR1 = FGFR1 (Homo sapiens (Human), UniProt P11362); experiment: FGFR Enzymatic Assay (FRET peptide phosphorylation), FGFR1; details: read-out: FGFR1 IC50
Sequence of FGFR1 (P11362 22-822): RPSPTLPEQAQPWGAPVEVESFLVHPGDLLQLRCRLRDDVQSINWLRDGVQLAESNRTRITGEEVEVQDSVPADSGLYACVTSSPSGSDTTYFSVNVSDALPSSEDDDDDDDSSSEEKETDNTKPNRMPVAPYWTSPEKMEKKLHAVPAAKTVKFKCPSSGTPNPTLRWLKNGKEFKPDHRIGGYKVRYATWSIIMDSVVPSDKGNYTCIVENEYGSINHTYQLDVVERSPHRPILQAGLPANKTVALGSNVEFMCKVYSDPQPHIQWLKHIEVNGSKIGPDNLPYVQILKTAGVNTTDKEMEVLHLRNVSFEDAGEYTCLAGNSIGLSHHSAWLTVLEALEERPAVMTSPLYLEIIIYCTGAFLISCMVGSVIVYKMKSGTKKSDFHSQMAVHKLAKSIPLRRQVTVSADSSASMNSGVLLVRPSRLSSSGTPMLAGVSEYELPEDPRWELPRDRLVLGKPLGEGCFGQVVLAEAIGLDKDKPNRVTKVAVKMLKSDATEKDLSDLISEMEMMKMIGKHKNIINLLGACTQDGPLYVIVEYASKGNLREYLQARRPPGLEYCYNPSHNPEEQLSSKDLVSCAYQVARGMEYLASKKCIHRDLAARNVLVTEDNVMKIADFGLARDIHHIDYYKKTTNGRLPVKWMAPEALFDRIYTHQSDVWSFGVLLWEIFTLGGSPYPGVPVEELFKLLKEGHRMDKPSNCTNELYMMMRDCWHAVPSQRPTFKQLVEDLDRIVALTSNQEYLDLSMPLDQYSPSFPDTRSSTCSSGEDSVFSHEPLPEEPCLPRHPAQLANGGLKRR
Excerpt: as §1, §2

FGFR4 = FGFR4 (Homo sapiens (Human), UniProt P22455); experiment: FGFR Enzymatic Assay (FRET peptide phosphorylation), FGFR4; details: for FGFR1/FGFR4 IC50 ratio / FGFR2/FGFR4 IC50 ratio / FGFR3/FGFR4 IC50 ratio: IC50 ratio showing FGFR4 selectivity
Sequence of FGFR4 (P22455 22-802): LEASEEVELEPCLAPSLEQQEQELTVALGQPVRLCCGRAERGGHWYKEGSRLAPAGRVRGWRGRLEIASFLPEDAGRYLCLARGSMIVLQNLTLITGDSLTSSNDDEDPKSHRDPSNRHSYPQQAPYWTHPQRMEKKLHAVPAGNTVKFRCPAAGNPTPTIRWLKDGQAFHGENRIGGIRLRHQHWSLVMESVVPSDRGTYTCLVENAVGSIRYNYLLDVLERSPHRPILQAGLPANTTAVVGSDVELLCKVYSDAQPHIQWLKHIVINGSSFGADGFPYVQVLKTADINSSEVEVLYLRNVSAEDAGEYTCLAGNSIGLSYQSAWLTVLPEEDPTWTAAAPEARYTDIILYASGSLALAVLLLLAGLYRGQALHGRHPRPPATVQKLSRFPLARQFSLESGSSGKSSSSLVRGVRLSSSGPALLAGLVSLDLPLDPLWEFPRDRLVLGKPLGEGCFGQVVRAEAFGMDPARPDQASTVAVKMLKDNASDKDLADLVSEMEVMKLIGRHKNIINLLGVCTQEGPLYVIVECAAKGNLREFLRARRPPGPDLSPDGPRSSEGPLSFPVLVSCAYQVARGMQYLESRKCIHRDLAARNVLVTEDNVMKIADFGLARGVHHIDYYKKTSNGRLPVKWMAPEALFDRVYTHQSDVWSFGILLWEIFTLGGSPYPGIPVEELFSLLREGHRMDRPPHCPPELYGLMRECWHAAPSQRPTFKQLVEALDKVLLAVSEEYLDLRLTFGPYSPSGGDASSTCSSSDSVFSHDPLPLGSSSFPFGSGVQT
Excerpt: as §1, §2

[1] = pre-incubated for 5 to 10 minutes
[2] = read-out: FGFR4 IC50, pre-incubated for 5 to 10 minutes
[3] = read-out: FGFR4 IC50, pre-incubated for 4 hours

Sequence of FGFR3 (P22607 23-806): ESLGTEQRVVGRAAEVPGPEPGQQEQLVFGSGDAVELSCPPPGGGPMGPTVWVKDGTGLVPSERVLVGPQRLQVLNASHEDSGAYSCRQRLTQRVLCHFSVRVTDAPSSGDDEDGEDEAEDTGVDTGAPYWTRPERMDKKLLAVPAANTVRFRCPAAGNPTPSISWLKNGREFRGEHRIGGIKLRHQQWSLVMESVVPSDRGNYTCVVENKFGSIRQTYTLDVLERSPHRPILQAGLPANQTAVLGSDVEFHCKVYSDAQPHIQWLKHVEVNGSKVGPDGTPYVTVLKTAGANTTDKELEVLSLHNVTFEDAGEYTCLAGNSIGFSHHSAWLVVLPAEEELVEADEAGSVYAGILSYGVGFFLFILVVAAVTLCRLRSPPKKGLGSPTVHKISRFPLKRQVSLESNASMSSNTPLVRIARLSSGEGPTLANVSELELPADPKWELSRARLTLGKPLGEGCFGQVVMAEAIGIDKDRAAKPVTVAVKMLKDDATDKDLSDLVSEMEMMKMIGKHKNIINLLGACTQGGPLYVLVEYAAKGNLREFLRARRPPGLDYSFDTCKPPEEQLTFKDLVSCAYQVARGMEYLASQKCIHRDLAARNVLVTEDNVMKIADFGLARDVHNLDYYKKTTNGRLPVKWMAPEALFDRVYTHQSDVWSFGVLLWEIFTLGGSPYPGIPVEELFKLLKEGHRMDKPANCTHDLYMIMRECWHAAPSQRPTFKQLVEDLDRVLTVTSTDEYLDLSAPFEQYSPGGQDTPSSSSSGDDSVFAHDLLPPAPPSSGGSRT

Row | IC50 (FGFR3; [1]) | IC50 (FGFR3; pre-incubated for 4 hours) | IC50 (FGFR2; [1]) | IC50 (FGFR2; pre-incubated for 4 hours) | IC50 (FGFR1; [1]) | IC50 (FGFR1; pre-incubated for 4 hours) | FGFR1/FGFR4 IC50 ratio (FGFR4; [1]) | FGFR2/FGFR4 IC50 ratio (FGFR4; [1]) | FGFR3/FGFR4 IC50 ratio (FGFR4; [1]) | FGFR1/FGFR4 IC50 ratio (FGFR4; pre-incubated for 4 hours) | FGFR2/FGFR4 IC50 ratio (FGFR4; pre-incubated for 4 hours) | FGFR3/FGFR4 IC50 ratio (FGFR4; pre-incubated for 4 hours) | IC50 (FGFR4; [2]) | IC50 (FGFR4; [3]) | IC50 (FGFR4) | Compound
1 | > 200 nM | > 200 nM | > 200 nM | > 200 nM | > 200 nM | > 200 nM | >100 | >100 | >100 | >100 | >100 | >100 | < 10 nM | < 10 nM |  | C=CC(=O)Nc1cc(-c2cc3c(cn2)CN(c2c(F)c(OC)cc(OC)c2F)C(=O)C32CC2)cc(N2CCOCC2)c1 [Example 10, N-{3-[2′-(2,6-difluoro-3,5-dimethoxyphenyl)-3′-oxo-2′,3′-dihydro-1′H-spiro[cyclopropane-1,4′-[2,7]naphthyridin]-6′-yl]-5-morpholin-4-ylphenyl}acrylamide]
2 |  | > 200 nM |  | > 200 nM |  | > 200 nM |  |  |  | >100 | >100 | >100 |  | < 10 nM |  | C=CC(=O)Nc1cn[nH]c1-c1cc2c(cn1)CN(c1c(F)c(OC)cc(OC)c1F)C(=O)C21CC1 [Example 14, N-(5-(2′-(2,6-difluoro-3,5-dimethoxyphenyl)-3′-oxo-2′,3′-dihydro-1′H-spiro[cyclopropane-1,4′-[2,7]naphthyridine]-6′-yl)-1H-pyrazol-4-yl)acrylamide]
3 |  | > 200 nM |  | > 200 nM |  | > 200 nM |  |  |  | >100 | >100 | >100 |  | < 10 nM |  | C=CC(=O)Nc1cnn(CCO)c1-c1cc2c(cn1)CN(c1c(F)c(OC)cc(OC)c1F)C(=O)C21CC1 [Example 17, N-(5-(2′-(2,6-difluoro-3,5-dimethoxyphenyl)-3′-oxo2′,3′-dihydro-1′H-spiro[cyclopropane-1,4′-[2,7]naphthyridine]-6′-yl)-1-(2-hydroxyethyl)-1H-pyrazol-4-yl)acrylamide]
4 |  | > 200 nM |  | > 200 nM |  | > 200 nM |  |  |  | >100 | >100 | >100 |  | < 10 nM |  | C=CC(=O)Nc1ccc(C)c(-c2ncc3c(n2)C2(CC2)C(=O)N(c2c(F)c(OC)cc(OC)c2F)C3)c1 [Example 37, N-(3-(6′-(2,6-difluoro-3,5-dimethoxyphenyl)-7′-oxo-6′,7′-dihydro-5′H-spiro[cyclopropane-1,8′-pyrido[4,3-d]pyrimidine]-2′-yl)-4-methylphenyl)acrylamide]
5 |  | > 200 nM |  | > 200 nM |  | > 200 nM |  |  |  | >100 | >100 | >100 |  |  | 10 to 30 nM | C=CC(=O)Nc1cnn(CC2CCOCC2)c1-c1cc2c(cn1)CN(c1c(F)c(OC)cc(OC)c1F)C(=O)C21CC1 [Example 24, N-(5-(2′-(2,6-difluoro-3,5-dimethoxyphenyl)-3′-oxo,2′,3′-dihydro-1′H-spiro[cyclopropane-1,4′-[2,7]naphthyridine]-6′-yl)-1-((tetrahydro-2H-pyran-4-yl)methyl)-1H-pyrazol-4-yl)acrylamide]
6 |  | > 200 nM |  | > 200 nM |  | > 200 nM |  |  |  | >100 | >50 | >100 |  |  | 10 to 30 nM | C=CC(=O)Nc1cnn(C2CCOCC2)c1-c1cc2c(cn1)CN(c1c(F)c(OC)cc(OC)c1F)C(=O)C21CC1 [Example 18, N-(5-(2′-(2,6-difluoro-3,5-dimethoxyphenyl)-3′,-oxo-2′,3′-dihydro-1′H-spiro[cyclopropane-1,4′-[2,7]naphthyridine]-6′-yl)-1-(tetrahydro-2H-pyran-4-yl)-1H-pyrazol-4-yl)acrylamide]
7 | > 200 nM | > 200 nM | > 200 nM | > 200 nM | > 200 nM | > 200 nM | >5 | >1 | >1 | >10 | >2 | >2 | > 200 nM |  | 30 to 200 nM | C=CC(=O)N1CCCC(c2cc3c(cn2)CN(c2c(F)c(OC)cc(OC)c2F)C(=O)C32CC2)C1 (stereo not drawn) [Example 8, 6′-(1-acryloylpiperidin-3-yl)-2′-(2,6-difluoro-3,5-dimethoxyphenyl)-1′H-spiro[cyclopropane-1,4′-[2,7]naphthyridin]-3′(2′H)-one]
8 |  | > 200 nM |  | > 200 nM |  | > 200 nM |  |  |  | >100 | >100 | >100 |  | < 10 nM |  | C=CC(=O)Nc1cnn(Cc2cccnc2)c1-c1cc2c(cn1)CN(c1c(F)c(OC)cc(OC)c1F)C(=O)C21CC1 [Example 22, N-(5-(2′-(2,6-difluoro-3,5-dimethoxyphenyl)-3′-oxo-2′,3′-dihydro-1′H-spiro[cyclopropane-1,4′-[2,7]naphthyridine]-6′-yl)-1-(pyridin-3-ylmethyl)-1H-pyrazol-4-yl)acrylamide]
9 |  | > 200 nM |  | > 200 nM |  | > 200 nM |  |  |  | >100 | >100 | >100 |  | < 10 nM |  | C=CC(=O)Nc1cnn(CCOCC)c1-c1cc2c(cn1)CN(c1c(F)c(OC)cc(OC)c1F)C(=O)C21CC1 [Example 16, N-(5-(2′-(2,6-difluoro-3,5-dimethoxyphenyl)-3′-oxo-2′,3′-dihydro-1′H-spiro[cyclopropane-1,4′-[2,7]naphthyridine]-6′-yl)-1-(2-ethoxyethyl)-1H-pyrazol-4-yl)acrylamide]

Row | Compound | IC50 (FGFR3; [1]) | IC50 (FGFR3; pre-incubated for 4 hours) | IC50 (FGFR2; [1]) | IC50 (FGFR2; pre-incubated for 4 hours) | IC50 (FGFR1; [1]) | IC50 (FGFR1; pre-incubated for 4 hours) | FGFR1/FGFR4 IC50 ratio (FGFR4; [1]) | FGFR2/FGFR4 IC50 ratio (FGFR4; [1]) | FGFR3/FGFR4 IC50 ratio (FGFR4; [1]) | FGFR1/FGFR4 IC50 ratio (FGFR4; pre-incubated for 4 hours) | FGFR2/FGFR4 IC50 ratio (FGFR4; pre-incubated for 4 hours) | FGFR3/FGFR4 IC50 ratio (FGFR4; pre-incubated for 4 hours) | IC50 (FGFR4; [2]) | IC50 (FGFR4; [3]) | IC50 (FGFR4)
10 | C=CC(=O)Nc1cnn(C[C@H]2CCOC2)c1-c1cc2c(cn1)CN(c1c(F)c(OC)cc(OC)c1F)C(=O)C21CC1 [Example 29, (R)-N-(5-(2′-(2,6-difluoro-3,5-dimethoxyphenyl)-3′-oxo-2′,3′-dihydro-1′H-spiro[cyclopropane-1,4′-[2,7]naphthyridine]-6′-yl)-1-((tetrahydrofuran-3-yl)methyl)-1H-pyrazol-4-yl)acrylamide] |  | > 200 nM |  | > 200 nM |  | > 200 nM |  |  |  | >100 | >100 | >100 |  | < 10 nM | 
